In EP4813381A1, “PHARMACEUTICAL USE OF GUAIANE SESQUITERPENE DERIVATIVE” (Nanjing University Of Chinese Medicine, priority 2023, dated 2025):

Columns and labels:
[1] = Conversion rate of salt-form prodrugs to parent compound in HEPES buffer solution; type: physicochemical; conditions: conversion to Compound 1, HEPES buffer pH 7.4, 37 °C
Outline: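 Salt-form prodrug dissolved in water was mixed 1:1 with HEPES buffer pH 7.4 (or mouse serum) and incubated at 37°C. Aliquots were quenched with methanol and centrifuged, and supernatants taken at 1, 2, 4, 8 and 12 h were analysed by HPLC. Conversion was followed by peak areas.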

diabetic nephropathy = assay: Diabetic nephropathy (STZ + HFD, DKD) mice: Scr and BUN; type: in vivo, C57/BL6J mice; conditions: serum, 8 weeks
Experimental: Production license number: SCXK(Su)2023-0009. […] Animals were acclimated for 7 days before use in experiments.
Administer streptozotocin (STZ, 50 mg/kg) via intraperitoneal injection for 5 consecutive days. After 72 hours, select mice with fasting blood glucose levels exceeding 16.7 mmol/L as model mice. […] Model mice were fed a high-fat diet (HFD) providing 60% of energy from fat for 8 weeks. After 8 weeks, gavage administration commenced.
Specimen Collection: One hour after the last drug administration, enucleate the eyeball to collect blood. Allow blood to stand at room temperature for 2 hours, then centrifuge at 3000 rpm for 20 minutes. Aspirate the serum, aliquot it, and store at -70 °C for future use. After blood collection, euthanize the mice by cervical dislocation. Open the abdominal cavity, remove the kidneys, and dissect away the perirenal fat and capsule. Store the tissue at -70 °C for future use.
Serum Creatinine (Scr) and Blood Urea Nitrogen (BUN) Assay: For each sample, 10 µL of serum was used for creatinine and urea level detection. Samples were added sequentially strictly following the kit instructions. After incubation at 37 °C, absorbance values were measured using an enzyme-linked immunosorbent assay (ELISA) reader. The concentration levels of each indicator were calculated based on the standard curve.

## CN(C)C[C@@H]1C(=O)O[C@H]2[C@H]1CC[C@@]1(C)C[C@]13CC[C@@](C)(O)[C@H]23 [compound 20]
[1]; 1 h
  Release rate: 6.2%
[1]; 2 h
  Release rate: 13.8%
[1]; 4 h
  Release rate: 21.7%
[1]; 8 h
  Release rate: 44.3%
[1]; 12 h
  Release rate: 59.1%
Diabetic nephropathy; gavage 1 mg/kg
  BUN: 37.01±2.50
  Scr: 17.72±1.658
Diabetic nephropathy; gavage 10 mg/kg
  BUN: 19.71±1.22
  Scr: 12.96±0.78
